For series [1], the target named is reverse-transcriptase of mouse Sarcoma virus (Moloney murine leukemia virus, UniProt P03355). As to the kind of experiment: Effect for inhibiting reverse-transcriptase of mouse Sarcoma virus. It is filed as biochemical. As to conditions: for inhibition at 300 µg/mL: read-out: Percent inhibition (%); for Percent inhibition (%): 300 μg/ml, virus protein (MLV-moloney), 37° C. 60 minutes. Here is the method: Effect for inhibiting reverse-transcriptase of mouse Sarcoma virus.
The effect for inhibition was determined as follows:
Methanol solution containing each active ingredient at a concentration of 6 mg/ml.
Solution containing 240 μg of virus protein (MLV-moloney) in 1 ml of a buffer solution of 20 mM-tris-hydrochloric acid (pH 7.8), 0.1 M-sodium chloride and 1 mM of dithiotersitol (DTT).
Reaction medium containing 46 mM tris-hydrochloric acid (pH 8.1) 92 mM potassium chloride, 15.4 mM manganese chloride, 0.77 mM-dATP, 0.77 mM-dCTP, 0.77 mM-dGTP, 0.23 μM-3H-TTP (50 ci/mM), 7.7 mM-DTT and 0.038% NP-40.
The reaction mixture was prepared by sequentially admixing (a) 5 μl, with (b) 30 μl and (c) 65 μl and the mixture was thoroughly mixed and kept at 0° C. for 5 minutes. Then, the reaction mixture was kept at 37° C. for 60 minutes and 1 ml of cold 10% trichloroacetic acid solution was added to the reaction mixture to stop the reaction. The mixture was kept at 0° C. for 20 minutes and an insoluble components were collected on each Whatman's paper GF/c (diameter of 2.5 cm) and washed with 5 ml of cold 5% trichloroacetic acid. The residue was dried in an oven at 80° C. and charged in a viral bottle containing 10 ml of toluene solution containing scintillator PPO-POPOP, and radioactivity was measured by a scintillation spectrometer.

A further series concerns mouse. Kind of series: Acute toxicity (LD50) in mouse. Format: in vivo. Here is the method:
Acute toxicity of the novel streptovaricin C derivatives (I) are remarkably low level. For example, 19-O-methyl compound (I) has LD50 to mouse of more than 1000 mg/kg in intramuscular injection and more than 3000 mg/kg in oral dose.

Take `CCCCCCCCOc1c(C)c(O)c2c3c1C(=O)C(C)=CC(C)(O)C(O)C(C)C(O)C1C(=O)OC(C(C)C=CC=C(C)C(=O)NC(=C(C)C3=O)C2=O)C(C)C1O` (stereo not drawn) [Example 10]: the inhibition at 300 µg/mL in series [1] was determined as 41%.
On the same count and under the same terms, with `CCCCCCCCCCCOc1c(C)c(O)c2c3c1C(=O)C(C)=CC(C)(O)C(O)C(C)C(O)C1C(=O)OC(C(C)C=CC=C(C)C(=O)NC(=C(C)C3=O)C2=O)C(C)C1O` (stereo not drawn) [Example 13] the figure was 78%; with `CC1=CC=CC(C)C2OC(=O)C(C(O)C2C)C(O)C(C)C(O)C(C)(O)C=C(C)C(=O)c2c(OCC(=O)c3ccccc3)c(C)c(O)c3c2C(=O)C(C)=C(NC1=O)C3=O` (stereo not drawn) [Example 30], 50%.
Regarding `C=CCOc1c(C)c(O)c2c3c1C(=O)C(C)=CC(C)(O)C(O)C(C)C(O)C1C(=O)OC(C(C)C=CC=C(C)C(=O)NC(=C(C)C3=O)C2=O)C(C)C1O` (stereo not drawn) [Example 20], in series [1], the inhibition at 300 µg/mL is 65%.
Consider “19-O-benzyl atropisodamavaricin Fc (containing 19-O-benzyl damavaricin Fc) [Example 2]”, for which the “Percent inhibition (%)” value in series [1] was found to be 67%.
As for `CCOc1c(C)c(O)c2c3c1C(=O)C(C)=CC(C)(O)C(O)C(C)C(O)C1C(=O)OC(C(C)C=CC=C(C)C(=O)NC(=C(C)C3=O)C2=O)C(C)C1O` (stereo not drawn) [Example 4], the inhibition at 300 µg/mL in series [1] amounted to 60%.
Regarding `CC(=O)COc1c(C)c(O)c2c3c1C(=O)C(C)=CC(C)(O)C(O)C(C)C(O)C1C(=O)OC(C(C)C=CC=C(C)C(=O)NC(=C(C)C3=O)C2=O)C(C)C1O` (stereo not drawn) [Example 24], the inhibition at 300 µg/mL in series [1] worked out at 58%.
For “19-O-methyl-atropisodamavaricin Fc (containing 19-O-methyl damavaricin Fc) [Example 1]”, the “Percent inhibition (%)” value in series [1] is given as 41%. The LD50 entry is on record as “more than 1000 mg/kg” with mouse (intramuscular injection) and “more than 3000 mg/kg” in the series on mouse (oral dose).
Turning to `CCCCCCOc1c(C)c(O)c2c3c1C(=O)C(C)=CC(C)(O)C(O)C(C)C(O)C1C(=O)OC(C(C)C=CC=C(C)C(=O)NC(=C(C)C3=O)C2=O)C(C)C1O` (stereo not drawn) [Example 8], the inhibition at 300 µg/mL in series [1] worked out at 60%.
Regarding `CCCCOc1c(C)c(O)c2c3c1C(=O)C(C)=CC(C)(O)C(O)C(C)C(O)C1C(=O)OC(C(C)C=CC=C(C)C(=O)NC(=C(C)C3=O)C2=O)C(C)C1O` (stereo not drawn) [Example 6], the inhibition at 300 µg/mL in series [1] came out at 78%.
Consider `CCCCCOc1c(C)c(O)c2c3c1C(=O)C(C)=CC(C)(O)C(O)C(C)C(O)C1C(=O)OC(C(C)C=CC=C(C)C(=O)NC(=C(C)C3=O)C2=O)C(C)C1O` (stereo not drawn) [Example 7], for which the inhibition at 300 µg/mL in series [1] was determined as 52%.
Still for that read-out and setting: in the case of `CCCOc1c(C)c(O)c2c3c1C(=O)C(C)=CC(C)(O)C(O)C(C)C(O)C1C(=O)OC(C(C)C=CC=C(C)C(=O)NC(=C(C)C3=O)C2=O)C(C)C1O` (stereo not drawn) [Example 5] it was 52%; in that of `CC1=CC=CC(C)C2OC(=O)C(C(O)C2C)C(O)C(C)C(O)C(C)(O)C=C(C)C(=O)c2c(OC3CCCCC3)c(C)c(O)c3c2C(=O)C(C)=C(NC1=O)C3=O` (stereo not drawn) [Example 22], 45%.

(Values after patent publication US4212881A, “Streptovaricin C derivatives” (priority 1978, dated 1980).)
